According to patent publication US20230250436A1, “NUCLEIC ACID THAT INTERACTS WITH A RECEPTOR FOR ENDOCRINE DISRUPTING CHEMICALS AND USE THEREOF” (KUMIAI CHEMICAL INDUSTRY CO., LTD., priority 2020, published 2023):

Tested on: juvenile hormone receptor of Daphnia magna (DampaMET)
Assay: Yeast reporter (β-galactosidase) assay, transformants with DampaMET and DampaSRC
Type: cell-based
Protocol: Subsequently, a reporter plasmid prepared by inserting the nucleotide sequence shown in SEQ ID NO: 2 into a yeast comprising the DampaMET plasmid and the DampaSRC plasmid introduced thereinto by the lithium acetate method. Thus, Yeast 1 of Invention was obtained. In the same manner, Yeasts 2 to 38 of Invention each comprising the response element according to the present invention and Control yeasts 1 to 9 shown in Table 3 were prepared.
With the use of the Yeast 1 of Invention, reporter activity to methyl farnesoate as a juvenile hormone substance was measured. At the outset, the Yeast 1 of Invention was subjected to pre-culture at 30° C. for 18 hours using the pre-culture medium shown in Table 1 until the turbidity (O.D. 595) of the pre-culture medium reached approximately 0.1. The solution of the pre-cultured cells (10 μl) and 1 μl of the solution of methyl farnesoate diluted to various concentrations with dimethyl sulfoxide (DMSO) were mixed with 90 μl of the main culture solution shown in Table 4 in a 96-well plate, and the mixture was subjected to static culture at 30° C. for 18 hours to prepare a reaction solution. The resultant was designated as a test group.
A reaction solution prepared with the addition of 1 μl of DMSO instead of a diluted methyl farnesoate solution was designated as a control group. Fractions of 10 μl each were collected from the reaction solutions and dispensed into each well of another 96-well plate. Thereafter, 100 μl of an assay reagent comprising a lytic solution (Z buffer: 60 mM Na2HPO4, 40 mM NaH2PO4, 1 mM MgCl2, 10 mM KCl, 2 mM dithiothreitol, 0.20% N-lauroylsarcosine sodium salt) mixed with 1 mg/ml ONPG (orthonitrophenylgalactopyranoside) was dispensed into each well, and the reaction was allowed to proceed at 37° C. for 30 minutes. Thereafter, the absorbance (O.D. 405) and the turbidity (O.D. 595) of the reaction solutions were assayed at the wavelength of 405 nm using a microplate reader (tradename: iMark microplate reader, Bio-Rad Laboratories). The increase of induction was calculated in accordance with the following formula.
The increase of induction is described in Ito-Harashima S et al., FEBS Open Bio., 7 (7): pp. 995-1008, 2017. When the increase of induction is positive, the transformant is determined to have reporter activity to the substance tested. The test was performed once or repeated 3 times, 5 times, or 15 times, and the average increase of induction was calculated. The control yeast 1 was treated in the same manner and reporter activity was compared.
In the same manner as in Test Example 1, the Yeasts 2, 3, 4, 5, 6, 7, 9, 10, 11, 12, 13, 14, 15, 16, 17, 18, 19, and 20 of Invention were subjected to assays of reporter activity to methyl farnesoate. The test was performed in accordance with Test Example 1, and reporter activity of the yeasts indicated above was compared with that of the control yeasts 2, 3, and 4.
With the use of the control yeast 7 comprising a different nucleotide sequence of the C-box (CACGCG) in the response element, the control yeast 8 comprising a different nucleotide sequence of the E-box (CACGTG), and the control yeast 9 comprising different nucleotide sequences of the C-box and the E-box from the relevant nucleotide sequences of the Yeast 4 of Invention, the influence of a core sequence on reporter activity to methyl farnesoate was evaluated. The test was performed in accordance with Test Example 1.
With the use of the Yeast 4 and the Yeast 8 of the present Invention, reporter activity to sex hormones; i.e., 17β-estradiol and testosterone, insect juvenile hormones; i.e., juvenile hormone III, and chemical substances suspected of having endocrine disrupting actions, such as 4-nonyl phenol, bisphenol A, 1,1,1-trichloro-2,2-bis(4-chlorophenyl)ethane (DDT), 2,2-bis(4-chlorophenyl)-1,1-dichloroethylene (DDE), and dieldrin, was assayed. The test was performed in accordance with Test Example 1. All the test substances were treated at 10 μM. […]

COC(=O)/C=C(\C)CC/C=C(\C)CCC=C(C)C [methyl farnesoate]
increase of induction (Control yeast 1 (cacgcggcggcacgtg x1), 100 pM): 0.01
increase of induction (Control yeast 1 (cacgcggcggcacgtg x1), 1 nM): 0.00
increase of induction (Control yeast 2 (cacgcggcggcacgtg x2), 10 nM): −0.29
increase of induction (Control yeast 2 (cacgcggcggcacgtg x2), 100 nM): −0.27
increase of induction (Control yeast 2 (cacgcggcggcacgtg x2), 1 μM): −0.34
increase of induction (Control yeast 2 (cacgcggcggcacgtg x2), 10 μM): −0.21
increase of induction (Control yeast 2 (cacgcggcggcacgtg x2), 100 μM): −0.14
increase of induction (Control yeast 3 (cacgcggcggcacgtg x3), 10 nM): −0.12
increase of induction (Control yeast 3 (cacgcggcggcacgtg x3), 100 nM): −0.21
increase of induction (Control yeast 3 (cacgcggcggcacgtg x3), 1 μM): −0.27
increase of induction (Control yeast 3 (cacgcggcggcacgtg x3), 10 μM): −0.17
increase of induction (Control yeast 3 (cacgcggcggcacgtg x3), 100 μM): −0.17
increase of induction (Control yeast 4 (cacgcggcggcacgtg x4), 10 nM): −0.84
increase of induction (Control yeast 4 (cacgcggcggcacgtg x4), 100 nM): −1.49
increase of induction (Control yeast 4 (cacgcggcggcacgtg x4), 1 μM): −1.82
increase of induction (Control yeast 4 (cacgcggcggcacgtg x4), 10 μM): −1.05
increase of induction (Control yeast 4 (cacgcggcggcacgtg x4), 100 μM): −2.06
increase of induction (Control yeast 7 (SEQ ID NO: 25 x4, different C-box), 100 nM): −0.42
increase of induction (Control yeast 7 (SEQ ID NO: 25 x4, different C-box), 10 μM): −0.12
increase of induction (Control yeast 8 (SEQ ID NO: 28 x4, different E-box), 100 nM): 0.00
increase of induction (Control yeast 8 (SEQ ID NO: 28 x4, different E-box), 10 μM): −0.02
increase of induction (Control yeast 9 (SEQ ID NO: 31 x4, different C-box and E-box), 100 nM): −0.42
increase of induction (Control yeast 9 (SEQ ID NO: 31 x4, different C-box and E-box), 10 μM): −0.12
increase of induction (Yeast 1 of Invention (SEQ ID NO: 2 x1), 100 pM): 0.10
increase of induction (Yeast 1 of Invention (SEQ ID NO: 2 x1), 1 nM): 0.08
increase of induction (Yeast 2 of Invention (SEQ ID NO: 2 x2), 10 nM): 0.54
increase of induction (Yeast 2 of Invention (SEQ ID NO: 2 x2), 100 nM): 1.26
increase of induction (Yeast 2 of Invention (SEQ ID NO: 2 x2), 1 μM): 1.45
increase of induction (Yeast 2 of Invention (SEQ ID NO: 2 x2), 10 μM): 1.64
increase of induction (Yeast 2 of Invention (SEQ ID NO: 2 x2), 100 μM): 1.57
increase of induction (Yeast 3 of Invention (SEQ ID NO: 2 x3), 10 nM): 2.05
increase of induction (Yeast 3 of Invention (SEQ ID NO: 2 x3), 100 nM): 4.35
increase of induction (Yeast 3 of Invention (SEQ ID NO: 2 x3), 1 μM): 4.45
increase of induction (Yeast 3 of Invention (SEQ ID NO: 2 x3), 10 μM): 4.07
increase of induction (Yeast 3 of Invention (SEQ ID NO: 2 x3), 100 μM): 4.29
increase of induction (Yeast 4 of Invention (SEQ ID NO: 2 x4), 10 nM, Test Example 2): 5.13
increase of induction (Yeast 4 of Invention (SEQ ID NO: 2 x4), 100 nM, Test Example 2): 7.55
increase of induction (Yeast 4 of Invention (SEQ ID NO: 2 x4), 100 nM, Test Example 3): 0.42
increase of induction (Yeast 4 of Invention (SEQ ID NO: 2 x4), 1 μM, Test Example 2): 7.12
increase of induction (Yeast 4 of Invention (SEQ ID NO: 2 x4), 10 μM, Test Example 2): 7.44
increase of induction (Yeast 4 of Invention (SEQ ID NO: 2 x4), 10 μM, Test Example 3): 0.51
increase of induction (Yeast 4 of Invention (SEQ ID NO: 2 x4), 100 μM, Test Example 2): 7.47
increase of induction (Yeast 5 of Invention (SEQ ID NO: 2 x5), 10 nM): 1.33
increase of induction (Yeast 5 of Invention (SEQ ID NO: 2 x5), 100 nM): 3.29
increase of induction (Yeast 5 of Invention (SEQ ID NO: 2 x5), 1 μM): 3.72
increase of induction (Yeast 5 of Invention (SEQ ID NO: 2 x5), 10 μM): 3.76
increase of induction (Yeast 5 of Invention (SEQ ID NO: 2 x5), 100 μM): 4.05
increase of induction (Yeast 6 of Invention (SEQ ID NO: 5 x3), 10 nM): 0.33
increase of induction (Yeast 6 of Invention (SEQ ID NO: 5 x3), 100 nM): 1.19
increase of induction (Yeast 6 of Invention (SEQ ID NO: 5 x3), 1 μM): 1.18
increase of induction (Yeast 6 of Invention (SEQ ID NO: 5 x3), 10 μM): 1.33
increase of induction (Yeast 6 of Invention (SEQ ID NO: 5 x3), 100 μM): 1.33
increase of induction (Yeast 7 of Invention (SEQ ID NO: 8 x3), 10 nM): 0.06
increase of induction (Yeast 7 of Invention (SEQ ID NO: 8 x3), 100 nM): 0.26
increase of induction (Yeast 7 of Invention (SEQ ID NO: 8 x3), 1 μM): 0.32
increase of induction (Yeast 7 of Invention (SEQ ID NO: 8 x3), 10 μM): 0.36
increase of induction (Yeast 7 of Invention (SEQ ID NO: 8 x3), 100 μM): 0.34
increase of induction (Yeast 9 of Invention (SEQ ID NO: 34 x1), 100 nM): 0.19
increase of induction (Yeast 9 of Invention (SEQ ID NO: 34 x1), 10 μM): 0.16
increase of induction (Yeast 10 of Invention (SEQ ID NO: 34 x2), 100 nM): 0.08
increase of induction (Yeast 10 of Invention (SEQ ID NO: 34 x2), 10 μM): 0.20
increase of induction (Yeast 11 of Invention (SEQ ID NO: 34 x3), 100 nM): 0.22
increase of induction (Yeast 11 of Invention (SEQ ID NO: 34 x3), 10 μM): 0.24
increase of induction (Yeast 12 of Invention (SEQ ID NO: 34 x4), 100 nM): 1.43
increase of induction (Yeast 12 of Invention (SEQ ID NO: 34 x4), 10 μM): 2.55
increase of induction (Yeast 13 of Invention (SEQ ID NO: 34 x5), 10 μM): 0.09
increase of induction (Yeast 14 of Invention (SEQ ID NO: 8 x1), 10 μM): 0.09
increase of induction (Yeast 15 of Invention (SEQ ID NO: 8 x2), 100 nM): 0.09
increase of induction (Yeast 15 of Invention (SEQ ID NO: 8 x2), 10 μM): 0.16
increase of induction (Yeast 16 of Invention (SEQ ID NO: 8 x4), 100 nM): 0.65
increase of induction (Yeast 16 of Invention (SEQ ID NO: 8 x4), 10 μM): 1.32
increase of induction (Yeast 17 of Invention (SEQ ID NO: 37 x1), 100 nM): 0.06
increase of induction (Yeast 17 of Invention (SEQ ID NO: 37 x1), 10 μM): 0.09
increase of induction (Yeast 18 of Invention (SEQ ID NO: 37 x2), 100 nM): 0.10
increase of induction (Yeast 19 of Invention (SEQ ID NO: 37 x3), 100 nM): 1.53
increase of induction (Yeast 19 of Invention (SEQ ID NO: 37 x3), 10 μM): 2.27
increase of induction (Yeast 20 of Invention (SEQ ID NO: 37 x4), 100 nM): 1.55
increase of induction (Yeast 20 of Invention (SEQ ID NO: 37 x4), 10 μM): 1.85
increase of induction (Yeast 25 of Invention (SEQ ID NO: 43 x1), 100 nM): 0.06
increase of induction (Yeast 25 of Invention (SEQ ID NO: 43 x1), 10 μM): 0.15
increase of induction (Yeast 26 of Invention (SEQ ID NO: 43 x2), 100 nM): 0.35
increase of induction (Yeast 26 of Invention (SEQ ID NO: 43 x2), 10 μM): 0.38
increase of induction (Yeast 27 of Invention (SEQ ID NO: 43 x3), 100 nM): 0.03
increase of induction (Yeast 27 of Invention (SEQ ID NO: 43 x3), 10 μM): 0.64
increase of induction (Yeast 28 of Invention (SEQ ID NO: 43 x4), 100 nM): 1.87
increase of induction (Yeast 28 of Invention (SEQ ID NO: 43 x4), 10 μM): 2.51
increase of induction (Yeast 29 of Invention (SEQ ID NO: 46 x1), 100 nM): 0.07
increase of induction (Yeast 29 of Invention (SEQ ID NO: 46 x1), 10 μM): 0.07
increase of induction (Yeast 30 of Invention (SEQ ID NO: 46 x2), 100 nM): 0.16
increase of induction (Yeast 30 of Invention (SEQ ID NO: 46 x2), 10 μM): 0.07
increase of induction (Yeast 31 of Invention (SEQ ID NO: 46 x3), 100 nM): 0.09
increase of induction (Yeast 31 of Invention (SEQ ID NO: 46 x3), 10 μM): 0.23
increase of induction (Yeast 32 of Invention (SEQ ID NO: 49 x1), 100 nM): 0.11
increase of induction (Yeast 32 of Invention (SEQ ID NO: 49 x1), 10 μM): 0.31
increase of induction (Yeast 33 of Invention (SEQ ID NO: 49 x2), 100 nM): 0.42
increase of induction (Yeast 33 of Invention (SEQ ID NO: 49 x2), 10 μM): 0.22
increase of induction (Yeast 34 of Invention (SEQ ID NO: 49 x3), 100 nM): 0.66
increase of induction (Yeast 34 of Invention (SEQ ID NO: 49 x3), 10 μM): 2.15
increase of induction (Yeast 35 of Invention (SEQ ID NO: 49 x4), 100 nM): 1.44
increase of induction (Yeast 35 of Invention (SEQ ID NO: 49 x4), 10 μM): 1.05
